Source: patent publication US7695930B2, “Method for the detection, identification and/or quantification of microoganisms with peptidase activity using phenoxazinone derivatives as enzyme substrates” (Biomerieux, priority 2003, dated 2010)

What was measured:
Test in all cases: Leucine-peptidase detection on agar medium (Example 11); for color of the colony: key: B corresponds to fluorescent blue; R corresponds to pink
Type in all cases: cell-based
Pseudomonas aeruginosa = tested on: Pseudomonas aeruginosa; for color of the colony: key: B corresponds to fluorescent blue; R corresponds to pink
Method: (§1) The detection medium was prepared by mixing 1.4 g of biogelytone (bioMérieux), 0.84 g of meat extract (bioMérieux), 2.24 g of NaCl (Merck), 280 μl of a solution of IPTG (isopropylthio-β-D-galactopyranoside, BIOSYNTH) in water (concentration 10 g/l) and 4.2 g of European agar (bioMérieux).
(§2) The substrate of the invention obtained in Example 2, in which the amino acid is leucine (leucine-9-aminobenzo[a]phenoxazin-5-one or Leu-ABP), or else a substrate of the prior art, which is leucine-aminomethylcoumarin (Leu-AMC, BACHEM), was then added in the following way: 280 ml of osmosed water were added to the medium, and the mixture was melted in a waterbath at 100° C. The mixture was autoclaved for 15 min at 121° C. and cooled to 50° C. in a waterbath.
(§3) The medium was then poured into Petri dishes.
(§4) The coloration of these colonies, the diffusion, and also the intensity of this coloration were noted.
(§5) The results were expressed as intensity of coloration using an arbitrary scale ranging from 0 to 4 as a basis and also as diffusion also using an arbitrary scale ranging from 0 to 4 as a basis.

Escherichia coli = tested on: Escherichia coli; for color of the colony: key: B corresponds to fluorescent blue; R corresponds to pink
Method: as §1, §2, §3, §4, §5

Citrobacter freundii = tested on: Citrobacter freundii; for color of the colony: key: B corresponds to fluorescent blue; R corresponds to pink
Method: as §1, §2, §3, §4, §5

Enterococcus faecalis = tested on: Enterococcus faecalis; for color of the colony: key: B corresponds to fluorescent blue; R corresponds to pink
Method: as §1, §2, §3, §4, §5

Staphylococcus aureus = tested on: Staphylococcus aureus; for color of the colony: key: B corresponds to fluorescent blue; R corresponds to pink
Method: as §1, §2, §3, §4, §5

Candida albicans = tested on: Candida albicans; for color of the colony: key: B corresponds to fluorescent blue; R corresponds to pink
Method: as §1, §2, §3, §4, §5

Enterobacter cloaccae = tested on: Enterobacter cloaccae; for color of the colony: key: B corresponds to fluorescent blue; R corresponds to pink
Method: as §1, §2, §3, §4, §5

leucine-9-aminobenzo[a]phenoxazin-5-one [Leu-ABP]
growth diameter (Pseudomonas aeruginosa; 24 h, 25 mg/l): 2 mm
color of the colony (Pseudomonas aeruginosa; 24 h, 50 mg/l): R
growth diameter (Pseudomonas aeruginosa; 24 h, 50 mg/l): 2 mm
intensity of coloration, scale 0 to 4 (Pseudomonas aeruginosa; 24 h, 50 mg/l): 0.75
color of the colony (Pseudomonas aeruginosa; 24 h, 100 mg/l): R
growth diameter (Pseudomonas aeruginosa; 24 h, 100 mg/l): 2 mm
intensity of coloration, scale 0 to 4 (Pseudomonas aeruginosa; 24 h, 100 mg/l): 0.75
color of the colony (Pseudomonas aeruginosa; 24 h, 200 mg/l): R
growth diameter (Pseudomonas aeruginosa; 24 h, 200 mg/l): 2 mm
intensity of coloration, scale 0 to 4 (Pseudomonas aeruginosa; 24 h, 200 mg/l): 0.5
color of the colony (Pseudomonas aeruginosa; 24 h, 400 mg/l): R
growth diameter (Pseudomonas aeruginosa; 24 h, 400 mg/l): 2 mm
intensity of coloration, scale 0 to 4 (Pseudomonas aeruginosa; 24 h, 400 mg/l): 0.5
color of the colony (Pseudomonas aeruginosa; 48 h, 25 mg/l): R
growth diameter (Pseudomonas aeruginosa; 48 h, 25 mg/l): 2 mm
intensity of coloration, scale 0 to 4 (Pseudomonas aeruginosa; 48 h, 25 mg/l): 1
color of the colony (Pseudomonas aeruginosa; 48 h, 50 mg/l): R
growth diameter (Pseudomonas aeruginosa; 48 h, 50 mg/l): 2 mm
intensity of coloration, scale 0 to 4 (Pseudomonas aeruginosa; 48 h, 50 mg/l): 2.5
color of the colony (Pseudomonas aeruginosa; 48 h, 100 mg/l): R
growth diameter (Pseudomonas aeruginosa; 48 h, 100 mg/l): 2 mm
intensity of coloration, scale 0 to 4 (Pseudomonas aeruginosa; 48 h, 100 mg/l): 2.5
color of the colony (Pseudomonas aeruginosa; 48 h, 200 mg/l): R
growth diameter (Pseudomonas aeruginosa; 48 h, 200 mg/l): 2 mm
intensity of coloration, scale 0 to 4 (Pseudomonas aeruginosa; 48 h, 200 mg/l): 2
color of the colony (Pseudomonas aeruginosa; 48 h, 400 mg/l): R
growth diameter (Pseudomonas aeruginosa; 48 h, 400 mg/l): 2 mm
intensity of coloration, scale 0 to 4 (Pseudomonas aeruginosa; 48 h, 400 mg/l): 0.5
color of the colony (Escherichia coli; 24 h, 25 mg/l): R
growth diameter (Escherichia coli; 24 h, 25 mg/l): 1.8 mm
intensity of coloration, scale 0 to 4 (Escherichia coli; 24 h, 25 mg/l): 0.0
color of the colony (Escherichia coli; 24 h, 50 mg/l): R
growth diameter (Escherichia coli; 24 h, 50 mg/l): 1.7 mm
intensity of coloration, scale 0 to 4 (Escherichia coli; 24 h, 50 mg/l): 0.5
color of the colony (Escherichia coli; 24 h, 100 mg/l): R
growth diameter (Escherichia coli; 24 h, 100 mg/l): 1.8 mm
intensity of coloration, scale 0 to 4 (Escherichia coli; 24 h, 100 mg/l): 0.0
growth diameter (Escherichia coli; 24 h, 200 mg/l): 1.7 mm
color of the colony (Escherichia coli; 24 h, 400 mg/l): R
growth diameter (Escherichia coli; 24 h, 400 mg/l): 1.8 mm
intensity of coloration, scale 0 to 4 (Escherichia coli; 24 h, 400 mg/l): 0.75
color of the colony (Escherichia coli; 48 h, 25 mg/l): R
growth diameter (Escherichia coli; 48 h, 25 mg/l): 1.8 mm
intensity of coloration, scale 0 to 4 (Escherichia coli; 48 h, 25 mg/l): 0.25
color of the colony (Escherichia coli; 48 h, 50 mg/l): R
growth diameter (Escherichia coli; 48 h, 50 mg/l): 1.8 mm
intensity of coloration, scale 0 to 4 (Escherichia coli; 48 h, 50 mg/l): 0.5
color of the colony (Escherichia coli; 48 h, 100 mg/l): R
growth diameter (Escherichia coli; 48 h, 100 mg/l): 1.8 mm
growth diameter (Escherichia coli; 48 h, 200 mg/l): 1.7 mm
growth diameter (Escherichia coli; 48 h, 400 mg/l): 1.8 mm
color of the colony (Citrobacter freundii; 24 h, 25 mg/l): R
growth diameter (Citrobacter freundii; 24 h, 25 mg/l): 0.7 mm
intensity of coloration, scale 0 to 4 (Citrobacter freundii; 24 h, 25 mg/l): 1.5
color of the colony (Citrobacter freundii; 24 h, 50 mg/l): R
growth diameter (Citrobacter freundii; 24 h, 50 mg/l): 0.7 mm
intensity of coloration, scale 0 to 4 (Citrobacter freundii; 24 h, 50 mg/l): 1.5
color of the colony (Citrobacter freundii; 24 h, 100 mg/l): R
growth diameter (Citrobacter freundii; 24 h, 100 mg/l): 0.7 mm
intensity of coloration, scale 0 to 4 (Citrobacter freundii; 24 h, 100 mg/l): 0.75
color of the colony (Citrobacter freundii; 24 h, 200 mg/l): R
growth diameter (Citrobacter freundii; 24 h, 200 mg/l): 0.8 mm
intensity of coloration, scale 0 to 4 (Citrobacter freundii; 24 h, 200 mg/l): 1
color of the colony (Citrobacter freundii; 24 h, 400 mg/l): R
growth diameter (Citrobacter freundii; 24 h, 400 mg/l): 0.7 mm
intensity of coloration, scale 0 to 4 (Citrobacter freundii; 24 h, 400 mg/l): 2
color of the colony (Citrobacter freundii; 48 h, 25 mg/l): R
growth diameter (Citrobacter freundii; 48 h, 25 mg/l): 0.7 mm
intensity of coloration, scale 0 to 4 (Citrobacter freundii; 48 h, 25 mg/l): 2.5
color of the colony (Citrobacter freundii; 48 h, 50 mg/l): R
growth diameter (Citrobacter freundii; 48 h, 50 mg/l): 0.7 mm
intensity of coloration, scale 0 to 4 (Citrobacter freundii; 48 h, 50 mg/l): 2.5
color of the colony (Citrobacter freundii; 48 h, 100 mg/l): R
growth diameter (Citrobacter freundii; 48 h, 100 mg/l): 0.7 mm
intensity of coloration, scale 0 to 4 (Citrobacter freundii; 48 h, 100 mg/l): 1.5
color of the colony (Citrobacter freundii; 48 h, 200 mg/l): R
growth diameter (Citrobacter freundii; 48 h, 200 mg/l): 0.8 mm
intensity of coloration, scale 0 to 4 (Citrobacter freundii; 48 h, 200 mg/l): 2
color of the colony (Citrobacter freundii; 48 h, 400 mg/l): R
growth diameter (Citrobacter freundii; 48 h, 400 mg/l): 0.7 mm
intensity of coloration, scale 0 to 4 (Citrobacter freundii; 48 h, 400 mg/l): 2
color of the colony (Enterococcus faecalis; 24 h, 25 mg/l): R
growth diameter (Enterococcus faecalis; 24 h, 25 mg/l): 0.3 mm
intensity of coloration, scale 0 to 4 (Enterococcus faecalis; 24 h, 25 mg/l): 0.0
color of the colony (Enterococcus faecalis; 24 h, 50 mg/l): R
growth diameter (Enterococcus faecalis; 24 h, 50 mg/l): 0.3 mm
intensity of coloration, scale 0 to 4 (Enterococcus faecalis; 24 h, 50 mg/l): 0.0
growth diameter (Enterococcus faecalis; 24 h, 100 mg/l): 0.3 mm
growth diameter (Enterococcus faecalis; 24 h, 200 mg/l): 0.3 mm
growth diameter (Enterococcus faecalis; 24 h, 400 mg/l): 0.3 mm
color of the colony (Enterococcus faecalis; 48 h, 25 mg/l): R
growth diameter (Enterococcus faecalis; 48 h, 25 mg/l): 0.3 mm
intensity of coloration, scale 0 to 4 (Enterococcus faecalis; 48 h, 25 mg/l): 0.0
color of the colony (Enterococcus faecalis; 48 h, 50 mg/l): R
growth diameter (Enterococcus faecalis; 48 h, 50 mg/l): 0.3 mm
intensity of coloration, scale 0 to 4 (Enterococcus faecalis; 48 h, 50 mg/l): 0.0
color of the colony (Enterococcus faecalis; 48 h, 100 mg/l): R
growth diameter (Enterococcus faecalis; 48 h, 100 mg/l): 0.3 mm
intensity of coloration, scale 0 to 4 (Enterococcus faecalis; 48 h, 100 mg/l): 0.0
growth diameter (Enterococcus faecalis; 48 h, 200 mg/l): 0.3 mm
color of the colony (Enterococcus faecalis; 48 h, 400 mg/l): R
growth diameter (Enterococcus faecalis; 48 h, 400 mg/l): 0.3 mm
intensity of coloration, scale 0 to 4 (Enterococcus faecalis; 48 h, 400 mg/l): 0.5
growth diameter (Staphylococcus aureus; 24 h, 25 mg/l): 0.3 mm
growth diameter (Staphylococcus aureus; 24 h, 50 mg/l): 0.2 mm
color of the colony (Staphylococcus aureus; 48 h, 25 mg/l): R
growth diameter (Staphylococcus aureus; 48 h, 25 mg/l): 0.7 mm
intensity of coloration, scale 0 to 4 (Staphylococcus aureus; 48 h, 25 mg/l): 0.25
growth diameter (Staphylococcus aureus; 48 h, 50 mg/l): 0.2 mm
growth diameter (Candida albicans; 24 h, 25 mg/l): 0.3 mm
color of the colony (Candida albicans; 48 h, 25 mg/l): R
growth diameter (Candida albicans; 48 h, 25 mg/l): 0.5 mm
intensity of coloration, scale 0 to 4 (Candida albicans; 48 h, 25 mg/l): 0.25
growth diameter (Candida albicans; 48 h, 50 mg/l): 0.3 mm
color of the colony (Enterobacter cloaccae; 24 h, 25 mg/l): R
growth diameter (Enterobacter cloaccae; 24 h, 25 mg/l): 0.7 mm
intensity of coloration, scale 0 to 4 (Enterobacter cloaccae; 24 h, 25 mg/l): 1.5
color of the colony (Enterobacter cloaccae; 24 h, 50 mg/l): R
growth diameter (Enterobacter cloaccae; 24 h, 50 mg/l): 0.5 mm
intensity of coloration, scale 0 to 4 (Enterobacter cloaccae; 24 h, 50 mg/l): 2.5
color of the colony (Enterobacter cloaccae; 24 h, 100 mg/l): R
growth diameter (Enterobacter cloaccae; 24 h, 100 mg/l): 1 mm
intensity of coloration, scale 0 to 4 (Enterobacter cloaccae; 24 h, 100 mg/l): 3
color of the colony (Enterobacter cloaccae; 24 h, 200 mg/l): R
growth diameter (Enterobacter cloaccae; 24 h, 200 mg/l): 1.5 mm
intensity of coloration, scale 0 to 4 (Enterobacter cloaccae; 24 h, 200 mg/l): 3
color of the colony (Enterobacter cloaccae; 24 h, 400 mg/l): R
growth diameter (Enterobacter cloaccae; 24 h, 400 mg/l): 1.5 mm
intensity of coloration, scale 0 to 4 (Enterobacter cloaccae; 24 h, 400 mg/l): 3
color of the colony (Enterobacter cloaccae; 48 h, 25 mg/l): R
growth diameter (Enterobacter cloaccae; 48 h, 25 mg/l): 0.7 mm
intensity of coloration, scale 0 to 4 (Enterobacter cloaccae; 48 h, 25 mg/l): 2.5
color of the colony (Enterobacter cloaccae; 48 h, 50 mg/l): R
growth diameter (Enterobacter cloaccae; 48 h, 50 mg/l): 0.5 mm
intensity of coloration, scale 0 to 4 (Enterobacter cloaccae; 48 h, 50 mg/l): 3
color of the colony (Enterobacter cloaccae; 48 h, 100 mg/l): R
growth diameter (Enterobacter cloaccae; 48 h, 100 mg/l): 1.3 mm
intensity of coloration, scale 0 to 4 (Enterobacter cloaccae; 48 h, 100 mg/l): 3
color of the colony (Enterobacter cloaccae; 48 h, 200 mg/l): R
growth diameter (Enterobacter cloaccae; 48 h, 200 mg/l): 1.5 mm
intensity of coloration, scale 0 to 4 (Enterobacter cloaccae; 48 h, 200 mg/l): 3
color of the colony (Enterobacter cloaccae; 48 h, 400 mg/l): R
growth diameter (Enterobacter cloaccae; 48 h, 400 mg/l): 1.7 mm
intensity of coloration, scale 0 to 4 (Enterobacter cloaccae; 48 h, 400 mg/l): 3
